Source: the supplement of paper PMC10307832

Tests used:
Assay in all cases: relative viability (nuclei count vs DMSO), 5 days (fraction); higher = more cells survive
Doxorubicin + OSI-027 = compound: COc1cccc2c1C(=O)c1c(O)c3c(c(O)c1C2=O)C[C@@](O)(C(=O)CO)C[C@@H]3O[C@H]1C[C@H](N)[C@H](O)[C@H](C)O1 [Doxorubicin] + COc1cccc2cc(-c3nc([C@H]4CC[C@H](C(=O)O)CC4)n4ncnc(N)c34)[nH]c12 [OSI-027] (partner 0.5 µM)
How it was run: (§1)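 Cells from lung cancer lines were seeded into 1536-well plates and, one day later, dosed by pin tool. Treatments were either a single drug or a fixed dose of an anchor drug with five library-drug doses (not always all listed) in √10 steps. After 5 days, nuclei were stained in a one-step fixation (final 0.05% Triton X-100, 1% formaldehyde, 1 ug/ml Hoechst) and counted on 4× images, and relative viability is the treated-to-vehicle nuclei ratio, as the median of duplicate plates.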

BAY61-3606 + OSI-027 = compound: COC1=C(C=C(C=C1)C2=CC3=NC=CN3C(=N2)NC4=C(C=CC=N4)C(=O)N)OC [BAY61-3606] + COc1cccc2cc(-c3nc([C@H]4CC[C@H](C(=O)O)CC4)n4ncnc(N)c34)[nH]c12 [OSI-027] (partner 0.5 µM)
How it was run: as §1

BAY61-3606 + Crizotinib = compound: COC1=C(C=C(C=C1)C2=CC3=NC=CN3C(=N2)NC4=C(C=CC=N4)C(=O)N)OC [BAY61-3606] + C[C@@H](Oc1cc(-c2cnn(C3CCNCC3)c2)cnc1N)c1c(Cl)ccc(F)c1Cl [Crizotinib] (partner 1 µM)
How it was run: as §1

BAY61-3606 + Decitabine = compound: COC1=C(C=C(C=C1)C2=CC3=NC=CN3C(=N2)NC4=C(C=CC=N4)C(=O)N)OC [BAY61-3606] + Nc1ncn([C@H]2C[C@H](O)[C@@H](CO)O2)c(=O)n1 [Decitabine] (partner 2 µM)
How it was run: as §1

| Cell Line | relative viability (Doxorubicin + OSI-027; first compound 0.001 µM) | relative viability (Doxorubicin + OSI-027; first compound 0.003162 µM) | relative viability (Doxorubicin + OSI-027; first compound 0.01 µM) | relative viability (Doxorubicin + OSI-027; first compound 0.03162 µM) | relative viability (Doxorubicin + OSI-027; first compound 0.1 µM) | relative viability (BAY61-3606 + OSI-027; first compound 0.02 µM) | relative viability (BAY61-3606 + OSI-027; first compound 0.06325 µM) | relative viability (BAY61-3606 + OSI-027; first compound 0.2 µM) | relative viability (BAY61-3606 + OSI-027; first compound 0.6325 µM) | relative viability (BAY61-3606 + OSI-027; first compound 2 µM) | relative viability (BAY61-3606 + Crizotinib; first compound 0.02 µM) | relative viability (BAY61-3606 + Crizotinib; first compound 0.06325 µM) | relative viability (BAY61-3606 + Crizotinib; first compound 0.2 µM) | relative viability (BAY61-3606 + Crizotinib; first compound 0.6325 µM) | relative viability (BAY61-3606 + Crizotinib; first compound 2 µM) | relative viability (BAY61-3606 + Decitabine; first compound 0.02 µM) | relative viability (BAY61-3606 + Decitabine; first compound 0.06325 µM) | relative viability (BAY61-3606 + Decitabine; first compound 0.2 µM) | relative viability (BAY61-3606 + Decitabine; first compound 0.6325 µM) | relative viability (BAY61-3606 + Decitabine; first compound 2 µM) |
| --- | --- | --- | --- | --- | --- | --- | --- | --- | --- | --- | --- | --- | --- | --- | --- | --- | --- | --- | --- | --- |
| ChaGo-K-1 | 0.587 | 0.588 | 0.63 | 0.439 | 0.398 | 0.537 | 0.533 | 0.519 | 0.495 | 0.639 | 1.09 | 0.832 | 1.06 | 1.14 | 1.05 | 0.53 | 0.543 | 0.479 | 0.51 | 0.531 |
| NCI-H1355 | 0.374 | 0.422 | 0.396 | 0.432 | 0.389 | 0.409 | 0.329 | 0.374 | 0.377 | 0.286 | 1.08 | 1.04 | 1.05 | 1.07 | 0.81 | 0.391 | 0.377 | 0.389 | 0.359 | 0.361 |
| NCI-H1651 | 0.682 | 0.679 | 0.554 | 0.298 | 0.22 | 0.702 | 0.627 | 0.664 | 0.637 | 0.499 | 0.882 | 0.873 | 0.846 | 0.869 | 0.777 | 0.621 | 0.539 | 0.555 | 0.568 | 0.481 |
| NCI-H2023 | 0.347 | 0.363 | 0.314 | 0.142 | 0.0903 | 0.471 | 0.359 | 0.37 | 0.402 | 0.19 | 0.713 | 0.61 | 0.703 | 0.751 | 0.53 | 0.221 | 0.297 | 0.237 | 0.266 | 0.19 |
| LU99A | 0.353 | 0.338 | 0.302 | 0.273 | 0.315 | 0.315 | 0.271 | 0.298 | 0.26 | 0.306 | 0.562 | 0.468 | 0.555 | 0.484 | 0.305 | 0.926 | 1.01 | 0.966 | 0.804 | 0.559 |
| NCI-H322M | 0.414 | 0.493 | 0.566 | 0.556 | 0.378 | 0.53 | 0.592 | 0.562 | 0.582 | 0.47 | 0.901 | 0.756 | 0.853 | 0.842 | 1.01 | 0.747 | 0.666 | 0.662 | 0.706 | 0.657 |
| LOU-NH91 | 0.569 | 0.748 | 0.803 | 0.681 | 0.69 | 0.743 | 0.725 | 0.766 | 0.719 | 0.708 | 0.72 | 0.722 | 0.77 | 0.777 | 0.662 | 0.809 | 0.805 | 0.847 | 0.838 | 0.746 |
| NCI-H727 | 0.483 | 0.713 | 0.531 | 0.631 | 0.556 | 0.604 | 0.559 | 0.71 | 0.688 | 0.513 | 0.855 | 0.706 | 0.992 | 0.925 | 0.738 | 0.8 | 0.8 | 0.947 | 0.981 | 0.895 |
| RERF-LC-KJ | 0.643 | 0.556 | 0.544 | 0.302 | 0.261 | 0.605 | 0.533 | 0.573 | 0.621 | 0.379 | 0.826 | 0.777 | 0.817 | 0.819 | 0.785 | 0.766 | 0.717 | 0.654 | 0.659 | 0.556 |
| H3255 | 0.641 | 0.517 | 0.629 | 0.581 | 0.594 | 0.529 | 0.549 | 0.642 | 0.736 | 0.546 | 0.922 | 0.854 | 0.902 | 1.05 | 0.752 | 0.529 | 0.571 | 0.677 | 0.779 | 0.509 |
| LXF-289 | 0.613 | 0.832 | 0.794 | 0.834 | 0.819 | 0.938 | 0.834 | 0.687 | 0.888 | 0.825 | 0.753 | 0.82 | 0.795 | 0.821 | 0.81 | 0.399 | 0.402 | 0.411 | 0.396 | 0.405 |
| HOP-62 | 0.832 | 0.759 | 0.798 | 0.719 | 0.767 | 0.859 | 0.838 | 0.774 | 0.786 | 0.714 | 0.928 |  | 0.823 | 1.06 | 0.716 |  | 0.2 | 0.228 | 0.266 | 0.22 |
| LK-2 | 0.175 | 0.191 | 0.244 | 0.187 | 0.199 | 0.197 | 0.16 | 0.22 | 0.231 | 0.185 | 0.227 | 0.216 | 0.228 | 0.202 | 0.201 | 0.319 | 0.287 | 0.362 | 0.28 | 0.342 |
| HCC-44 | 0.35 | 0.575 | 0.63 | 0.381 | 0.322 | 0.562 |  | 0.474 | 0.583 | 0.548 | 0.749 | 0.829 | 0.777 | 0.907 | 0.823 | 0.939 | 0.926 | 0.931 | 0.911 | 0.957 |
| BEN | 0.301 | 0.28 | 0.335 | 0.301 | 0.29 | 0.336 | 0.316 | 0.316 | 0.285 | 0.276 | 0.88 | 0.748 | 1.1 | 1.06 | 0.84 | 0.798 | 0.688 | 0.77 | 0.769 | 0.755 |
| NCI-H2405 | 0.607 | 0.645 | 0.654 | 0.629 | 0.509 | 0.676 | 0.63 | 0.64 | 0.756 | 0.65 | 0.856 | 0.787 | 0.764 | 0.849 | 0.661 | 0.798 | 0.78 | 0.703 | 0.779 | 0.643 |
